Read-outs that look alike come from different tables or passages of the source.
Tests used:
primary human T-cells [1] = assay: Proliferation assay after 5 days (CellTiter-Glo, CD3 stimulation; PBS counter screen); type: cell-based; details: CD3 stimulation; for Emax: read-out: Emax proliferation (% activation); for EC50: primary human T-cells, CellTiter-Glo after 5 days, EC50 of fitted sigmoidal curve, read-out: Tcell Proliferation CD3 EC50
Method in brief: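 Proliferation is measured 5 days post-treatment as ATP-dependent luminescence. Flags mark compounds that activated unstimulated cells or harmed viability.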

primary human T-cells [2] = tested on: primary human T-cells
[3] = Homo sapiens, T-cell, 120 h, 5 days, normalized to reference compound A1 as stimulator control = 100%, DMSO neutral control

Row | Compound | Emax (primary human T-cells [1]; [3]) [%] | EC50 (primary human T-cells [2]) [nM] | EC50 (primary human T-cells [1]; Homo sapiens, T-cell, 120 h) [nM] | EC50 (primary human T-cells [1]; T-cell, 120 h) [nM] | Emax proliferation (% activation) (primary human T-cells [1]; 5 days, normalized to reference compound A1 as stimulator control = 100%, DMSO neutral control) | EC50 (primary human T-cells [1]) [nM]
1 | N[C@H]1CS(=O)(=O)c2cc(F)c(-c3nnc(CC4CC(F)(F)C4)o3)cc2N(Cc2ccc(Cl)cc2)C1=O [Example 77, (3R)-3-Amino-5-[(4-chlorophenyl)methyl]-7-[5-[(3,3-difluorocyclobutyl)methyl]-1,3,4-oxadiazol-2-yl]-8-fluoro-1,1-dioxo-2,3-dihydro-1λ^6,5-benzothiazepin-4-one] | 183 | 341 |  |  |  | 
2 | CC(C)(C)c1cc(-c2cc3c(cc2F)S(=O)(=O)C[C@H](N)C(=O)N3Cc2ccc(Cl)cc2)on1 [Example 52, (3R)-3-amino-7-(3-tert-butylisoxazol-5-yl)-5-[(4-chlorophenyl)methyl]-8-fluoro-1,1-dioxo-2,3-dihydro-1λ^6,5-benzothiazepin-4-one] | 133 | 974 | 1090 |  |  | 
3 | CC(Nc1nnc(-c2cc3c(cc2F)S(=O)(=O)C[C@H](N)C(=O)N3Cc2ccc(Cl)cc2)o1)C1CC(F)(F)C1 (stereo partly drawn) [Example 493, (3R)-3-amino-5-[(4-chlorophenyl)methyl]-7-[5-[1-(3,3-difluorocyclobutyl)ethylamino]-1,3,4-oxadiazol-2-yl]-8-fluoro-1,1-dioxo-2,3-dihydro-1λ^6,5-benzothiazepin-4-one] | 102 | 1280 | 982 |  |  | 
4 | N[C@H]1CS(=O)(=O)c2ccc(-c3nnc(C(F)C(F)(F)F)o3)cc2N(Cc2ccc(Cl)cc2)C1=O (stereo partly drawn) [Example 369, (3R)-3-amino-5-[(4-chlorophenyl)methyl]-1,1-dioxo-7-[5-(1,2,2,2-tetrafluoroethyl)-1,3,4-oxadiazol-2-yl]-2,3-dihydro-1λ^6,5-benzothiazepin-4-one] | 114 | 1700 |  | 466 |  | 
5 | CN1CC(n2nnc(-c3cc4c(cc3F)S(=O)(=O)C[C@H](N)C(=O)N4Cc3ccc(Cl)cc3)n2)CC(F)(F)C1 (stereo partly drawn) [Example 21, (3R)-3-amino-5-[(4-chlorophenyl)methyl]-7-[2-(5,5-difluoro-1-methyl-3-piperidyl)tetrazol-5-yl]-8-fluoro-1,1-dioxo-2,3-dihydro-1λ^6,5-benzothiazepin-4-one] | 127 | 666 | 293 |  |  | 
6 | CC(C)(C)c1nnc(-c2ccc3c(c2)N(Cc2ccc(OCC4CCOCC4)cc2)C(=O)[C@@H](N)CS3(=O)=O)o1 [Example 433, (3R)-3-amino-7-(5-tert-butyl-1,3,4-oxadiazol-2-yl)-1,1-dioxo-5-[[4-(tetrahydropyran-4-ylmethoxy)phenyl]methyl]-2,3-dihydro-1λ^6,5-benzothiazepin-4-one] | 105 | 5600 | 4790 |  |  | 
7 | COC(=O)N1CC2CC(c3nc(-c4cc5c(cc4F)[S+]([O-])C[C@H](N)C(=O)N5Cc4ccc(OC(F)(F)F)cc4)no3)(C2)C1 (stereo partly drawn) [Example 337, methyl 1-[3-[(3R)-3-amino-8-fluoro-1,4-dioxo-5-[[4-(trifluoromethoxy)phenyl]methyl]-2,3-dihydro-1λ^4,5-benzothiazepin-7-yl]-1,2,4-oxadiazol-5-yl]-3-azabicyclo[3.1.1]heptane-3-carboxylate] |  | 5950 |  |  | 92 | 2270
8 | CC(=O)N1CCN(c2nnc(-c3cc4c(cc3F)S(=O)(=O)C[C@H](N)C(=O)N4Cc3ccc(Cl)cc3)o2)CC1 [Example 471, (3R)-7-[5-(4-acetylpiperazin-1-yl)-1,3,4-oxadiazol-2-yl]-3-amino-5-[(4-chlorophenyl)methyl]-8-fluoro-1,1-dioxo-2,3-dihydro-1λ^6.5-benzothiazepin-4-one] | 65 | > 10000 | 8030 |  |  | 
9 | CCOC(=O)N1CC2CC(c3nc(-c4cc5c(cc4F)S(=O)(=O)C[C@H](N)C(=O)N5Cc4ccc(Cl)cc4)no3)(C2)C1 [Example 315, ethyl 1-[3-[(3R)-3-amino-5-[(4-chlorophenyl)methyl]-8-fluoro-1,1,4-trioxo-2,3-dihydro-1λ^6,5-benzothiazepin-7-yl]-1,2,4-oxadiazol-5-yl]-3-azabicyclo[3.1.1]heptane-3-carboxylate] | 131 | 1030 |  |  |  | 
10 | COC(=O)N1CC2CC(c3nc(-c4cc5c(cc4F)S(=O)(=O)C[C@H](N)C(=O)N5Cc4ccc(OC(F)(F)F)cc4)no3)(C2)C1 [Example 335, methyl 1-[3-[(3R)-3-amino-8-fluoro-1,1,4-trioxo-5-[[4-(trifluoromethoxy)phenyl]methyl]-2,3-dihydro-1λ^6,5-benzothiazepin-7-yl]-1,2,4-oxadiazol-5-yl]-3-azabicyclo[3.1.1]heptane-3-carboxylate] | 161 | 819 |  |  |  | 
11 | N[C@H]1CS(=O)(=O)c2cc(F)c(-c3noc(C4(C(F)(F)F)CC4)n3)cc2N(Cc2ccc(OC(F)(F)F)cc2)C1=O [Example 344, (3R)-3-amino-8-fluoro-1,1-dioxo-5-[[4-(trifluoromethoxy)phenyl]methyl]-7-[5-[1-(trifluoromethyl)cyclopropyl]-1,2,4-oxadiazol-3-yl]-2,3-dihydro-1λ^6,5-benzothiazepin-4-one] | 120 | 473 | 69.7 |  |  | 
12 | CN1CCN(CC(C)(C)c2nnc(-c3cc4c(cc3F)S(=O)(=O)C[C@H](N)C(=O)N4Cc3ccc(Cl)cc3)o2)CC1 [Example 148, (3R)-3-amino-5-[(4-chlorophenyl)methyl]-7-[5-[1,1-dimethyl-2-(4-methylpiperazin-1-yl)ethyl]-1,3,4-oxadiazol-2-yl]-8-fluoro-1,1-dioxo-2,3-dihydro-1λ^6,5-benzothiazepin-4-one] | 48 | 988 | > 10000 |  |  | 
13 | CC(C)(C#N)c1nnc(-c2ccc3c(c2)N(Cc2ccc(OC(F)(F)F)cc2)C(=O)[C@@H](N)CS3(=O)=O)o1 [Example 420, 2-[5-[(3R)-3-amino-1,1,4-trioxo-5-[[4-(trifluoromethoxy)phenyl]methyl]-2,3-dihydro-1λ^6,5-benzothiazepin-7-yl]-1,3,4-oxadiazol-2-yl]-2-methyl-propanenitrile] | 167 | 1350 | 1590 |  |  | 
14 | CC(C)(C#N)c1nnc(-c2ccc3c(c2)N(Cc2ccc(Cl)cc2)C(=O)[C@@H](N)CS3(=O)=O)o1 [Example 364, 2-[5-[(3R)-3-amino-5-[(4-chlorophenyl)methyl]-1,1,4-trioxo-2,3-dihydro-1λ^6,5-benzothiazepin-7-yl]-1,3,4-oxadiazol-2-yl]-2-methyl-propanenitrile] | 108 | 981 | 928 |  |  | 
15 | CC(N)(c1nnc(-c2cc3c(cc2F)S(=O)(=O)C[C@H](N)C(=O)N3Cc2ccc(Cl)cc2)o1)C(F)(F)F (stereo partly drawn) [Example 127, (3R)-3-amino-7-[5-(1-amino-2,2,2-trifluoro-1-methyl-ethyl)-1,3,4-oxadiazol-2-yl]-5-[(4-chlorophenyl)methyl]-8-fluoro-1,1-dioxo-2,3-dihydro-1λ^6,5-benzothiazepin-4-one] | 110 | 232 | 181 |  |  | 
16 | Cc1nnc(-c2nc(-c3cc4c(cc3F)S(=O)(=O)C[C@H](N)C(=O)N4Cc3ccc(OC(F)(F)F)cc3)no2)o1 [Example 334, (3R)-3-amino-8-fluoro-7-[5-(5-methyl-1,3,4-oxadiazol-2-yl)-1,2,4-oxadiazol-3-yl]-1,1-dioxo-5-[[4-(trifluoromethoxy)phenyl]methyl]-2,3-dihydro-1λ^6,5-benzothiazepin-4-one] | 80 | 239 | 345 |  |  | 
17 | N[C@H]1C[S+]([O-])c2ccc(-c3nnc(CC(F)(F)F)o3)cc2N(Cc2ccc(OC(F)(F)F)cc2)C1=O (single isomer, unassigned; epimer a) [Example 427] | 26 | > 10000 |  |  |  | > 10000
18 | CC(C)(C)c1nnc(-c2cc3c(cc2F)S(=O)(=O)C[C@H](N)C(=O)N3Cc2ccccn2)o1 [Example 224, (3R)-3-amino-7-(5-tert-butyl-1,3,4-oxadiazol-2-yl)-8-fluoro-1,1-dioxo-5-(2-pyridylmethyl)-2,3-dihydro-1λ^6,5-benzothiazepin-4-one] | 31 | > 20000 | > 20000 |  |  | 
19 | N[C@H]1CS(=O)(=O)c2cc(F)c(-c3nnc(C4CC5(C4)CC(F)(F)C5)o3)cc2N(Cc2ccc(Cl)cc2)C1=O [Example 94, (3R)-3-amino-5-[(4-chlorophenyl)methyl]-7-[5-(2,2-difluorospiro[3.3]heptan-6-yl)-1,3,4-oxadiazol-2-yl]-8-fluoro-1,1-dioxo-2,3-dihydro-1λ^6,5-benzothiazepin-4-one] | 85 | 161 | 18.1 |  |  | 
20 | CN1CCN(c2nnc(-c3cc4c(cc3F)S(=O)(=O)C[C@H](N)C(=O)N4Cc3ccc(Cl)cc3)o2)CC1 [Example 470, (3R)-3-amino-5-[(4-chlorophenyl)methyl]-8-fluoro-7-[5-(4-methylpiperazin-1-yl)-1,3,4-oxadiazol-2-yl]-1,1-dioxo-2,3-dihydro-1λ^6,5-benzothiazepin-4-one] | 101 | 551 | 1410 |  |  | 
21 | N[C@H]1CS(=O)(=O)c2cc(F)c(-c3nnc(CCC(F)(F)F)o3)cc2N(Cc2ccc(Cl)cc2)C1=O [Example 67, (3R)-3-Amino-5-[(4-chlorophenyl)methyl]-8-fluoro-1,1-dioxo-7-[5-(3,3,3-trifluoropropyl)-1,3,4-oxadiazol-2-yl]-2,3-dihydro-1λ^6,5-benzothiazepin-4-one] | 165 | 199 | 112 |  |  | 

Reference: patent US20240368150A1 (Hoffmann-La Roche Inc., priority 2021, published 2024)
